In patent publication US12404241B2 (Celgene Corporation, priority 2018, dated 2025):

Biological target: T1, AR (Homo sapiens, UniProt P10275)
T1 construct: endogenous in cells; host or cells: VCaP cells
T1 sequence (P10275 1-920): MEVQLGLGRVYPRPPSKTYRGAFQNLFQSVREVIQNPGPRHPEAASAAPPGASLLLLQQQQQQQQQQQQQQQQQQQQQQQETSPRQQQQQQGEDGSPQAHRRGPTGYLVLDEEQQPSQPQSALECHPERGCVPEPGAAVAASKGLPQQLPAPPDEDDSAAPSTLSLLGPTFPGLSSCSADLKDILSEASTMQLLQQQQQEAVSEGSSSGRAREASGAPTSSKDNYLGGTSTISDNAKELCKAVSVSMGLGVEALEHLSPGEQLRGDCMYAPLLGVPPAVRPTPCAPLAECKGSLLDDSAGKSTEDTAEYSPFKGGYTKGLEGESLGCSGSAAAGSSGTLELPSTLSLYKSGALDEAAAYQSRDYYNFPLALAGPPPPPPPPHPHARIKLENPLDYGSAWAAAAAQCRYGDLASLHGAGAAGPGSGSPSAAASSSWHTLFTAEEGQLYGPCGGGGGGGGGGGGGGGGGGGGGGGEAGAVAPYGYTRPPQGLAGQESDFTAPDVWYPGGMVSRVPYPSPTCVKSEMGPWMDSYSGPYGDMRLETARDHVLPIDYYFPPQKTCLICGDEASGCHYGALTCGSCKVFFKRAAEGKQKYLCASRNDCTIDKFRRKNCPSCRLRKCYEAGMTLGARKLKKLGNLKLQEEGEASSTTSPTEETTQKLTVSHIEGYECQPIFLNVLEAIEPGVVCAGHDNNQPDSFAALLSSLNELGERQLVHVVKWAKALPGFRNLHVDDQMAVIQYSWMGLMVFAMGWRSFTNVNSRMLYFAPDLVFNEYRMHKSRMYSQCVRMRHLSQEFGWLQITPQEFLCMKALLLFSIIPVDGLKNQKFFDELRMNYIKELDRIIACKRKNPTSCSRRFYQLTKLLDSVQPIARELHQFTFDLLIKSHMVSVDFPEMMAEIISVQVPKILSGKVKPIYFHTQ
Assay: VCAP AR Degradation Assay
Assay type: cell-based
Settings: for Y (AR degradation efficiency, % of DMSO control): class symbols *; for DC50: class symbols A-C, read-out: DC50
Procedure, shortened: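 24 h, 37 °C, VCaP (DMEM/8% FBS), 10-pt 1:3 dilutions from 5 μM final top, 0.1% DMSO ctrl. Lysis on ice/4 °C 1 h; total AR by sandwich ELISA, normalized to DMSO. 4PL fit → DC50, EC50, Y (min AR level).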

Structure (SMILES)	Y (AR degradation efficiency, % of DMSO control)	DC50 [nM]
CCc1cc(N2C(=S)N(c3ccc(C#N)c(C(F)(F)F)c3)C(=O)C2(C)C)ccc1OCCN1CCN(CC(=O)Nc2cc(NC3CCC(=O)NC3=O)cc(F)c2F)CC1 (stereo not drawn) [Example 70, 2-(4-(2-(4-(3-(4-cyano-3-(trifluoromethyl)phenyl)-5,5-dimethyl-4-oxo-2-thioxoimidazolidin-1-yl)-2-ethylphenoxy)ethyl)piperazin-1-yl)-N-(5-(2,6-dioxopiperidin-3-ylamino)-2,3-difluorophenyl)acetamide]	* (0<Y<=25%)	< 100
CC(C)c1cc(N2C(=S)N(c3ccc(C#N)c(C(F)(F)F)c3)C(=O)C2(C)C)ccc1OCCN1C[C@@H](C)N(CC(=O)Nc2cc(NC3CCC(=O)NC3=O)ccc2F)[C@@H](C)C1 (stereo partly drawn) [Example 217, 2-((2S,6R)-4-(2-(4-(3-(4-cyano-3-(trifluoromethyl)phenyl)-5,5-dimethyl-4-oxo-2-thioxoimidazolidin-1-yl)-2-isopropylphenoxy)ethyl)-2,6-dimethylpiperazin-1-yl)-N-(5-(2,6-dioxopiperidin-3-ylamino)-2-fluorophenyl)acetamide]	* (0<Y<=25%)	500 to 1000
C[C@@H]1CN(CCOc2ccc(N3C(=S)N(c4cnc(C#N)c(C(F)(F)F)c4)C(=O)C3(C)C)cc2C2CCC2)C[C@H](C)N1CC(=O)Nc1cccc(NC2CCC(=O)NC2=O)c1 (stereo partly drawn) [Example 268, 2-((2R,6S)-4-(2-(4-(3-(6-cyano-5-(trifluoromethyl)pyridin-3-yl)-5,5-dimethyl-4-oxo-2-thioxoimidazolidin-1-yl)-2-cyclobutylphenoxy)ethyl)-2,6-dimethylpiperazin-1-yl)-N-(3-(2,6-dioxopiperidin-3-ylamino)phenyl)acetamide]	** (25%<Y<=35%)	< 100
C[C@@H]1CN(CCOc2ccc(N3C(=S)N(c4cnc(C#N)c(C(F)(F)F)c4)C(=O)C3(C)C)cc2CCF)CCN1CC(=O)Nc1cc(Cl)cc(NC2CCC(=O)NC2=O)c1 (stereo partly drawn) [Example 140, N-(3-chloro-5-(2,6-dioxopiperidin-3-ylamino)phenyl)-2-((R)-4-(2-(4-(3-(6-cyano-5-(trifluoromethyl)pyridin-3-yl)-5,5-dimethyl-4-oxo-2-thioxoimidazolidin-1-yl)-2-(2-fluoroethyl)phenoxy)ethyl)-2-methylpiperazin-1-yl)acetamide]	* (0<Y<=25%)	< 100
C[C@@H]1CN(CCOc2ccc(N3C(=S)N(c4ccc(C#N)c(C(F)(F)F)c4)C(=O)C3(C)C)cc2C2CC2)C[C@H](C)N1CC(=O)Nc1cccc(NC2CCC(=O)NC2=O)c1 (stereo partly drawn) [Example 204, 2-((2S,6R)-4-(2-(4-(3-(4-cyano-3-(trifluoromethyl)phenyl)-5,5-dimethyl-4-oxo-2-thioxoimidazolidin-1-yl)-2-cyclopropylphenoxy)ethyl)-2,6-dimethylpiperazin-1-yl)-N-(3-(2,6-dioxopiperidin-3-ylamino)phenyl)acetamide]	* (0<Y<=25%)	< 100
C[C@@H]1CN(CCOc2ccc(N3C(=S)N(c4ccc(C#N)c(Cl)c4)C(=O)C3(C)C)cc2C2CC2)C[C@H](C)N1CC(=O)Nc1cc(F)cc(NC2CCC(=O)NC2=O)c1 (stereo partly drawn) [Example 226, 2-((2S,6R)-4-(2-(4-(3-(3-chloro-4-cyanophenyl)-5,5-dimethyl-4-oxo-2-thioxoimidazolidin-1-yl)-2-cyclopropylphenoxy)ethyl)-2,6-dimethylpiperazin-1-yl)-N-(3-(2,6-dioxopiperidin-3-ylamino)-5-fluorophenyl)acetamide]	* (0<Y<=25%)	< 100
CC(C)c1cc(N2C(=S)N(c3cnc(C#N)c(C(F)(F)F)c3)C(=O)C23CCC3)ccc1OCCN1C[C@@H](C)N(CC(=O)Nc2cc(F)cc(NC3CCC(=O)NC3=O)c2)[C@@H](C)C1 (stereo partly drawn) [Example 211, 2-((2S,6R)-4-(2-(4-(7-(6-cyano-5-(trifluoromethyl)pyridin-3-yl)-8-oxo-6-thioxo-5,7-diazaspiro[3.4]octan-5-yl)-2-isopropylphenoxy)ethyl)-2,6-dimethylpiperazin-1-yl)-N-(3-(2,6-dioxopiperidin-3-ylamino)-5-fluorophenyl)acetamide]	* (0<Y<=25%)	< 100
CCc1cc(N2C(=S)N(c3ccc(C#N)c(C(F)(F)F)c3)C(=O)C2(C)C)ccc1OCCN1CCN([C@H](C)C(=O)Nc2cccc(NC3CCC(=O)NC3=O)c2)[C@H](C)C1 (stereo partly drawn) [Example 280, (2R)-2-((R)-4-(2-(4-(3-(4-cyano-3-(trifluoromethyl)phenyl)-5,5-dimethyl-4-oxo-2-thioxoimidazolidin-1-yl)-2-ethylphenoxy)ethyl)-2-methylpiperazin-1-yl)-N-(3-(2,6-dioxopiperidin-3-ylamino)phenyl)propanamide]	*** (35%<Y<50%)	100 to 500
C[C@@H]1CN(CCOc2ccc(N3C(=S)N(c4cnc(C#N)c(C(F)(F)F)c4)C(=O)C34CCC4)cc2C2CC2)C[C@H](C)N1CC(=O)Nc1cc(C#N)cc(NC2CCC(=O)NC2=O)c1 (stereo partly drawn) [Example 212, N-(3-cyano-5-(2,6-dioxopiperidin-3-ylamino)phenyl)-2-((2S,6R)-4-(2-(4-(7-(6-cyano-5-(trifluoromethyl)pyridin-3-yl)-8-oxo-6-thioxo-5,7-diazaspiro[3.4]octan-5-yl)-2-cyclopropylphenoxy)ethyl)-2,6-dimethylpiperazin-1-yl)acetamide]	* (0<Y<=25%)	< 100
C[C@@H]1CN(CCOc2ccc(N3C(=S)N(c4cnc(C#N)c(C(F)(F)F)c4)C(=O)C34CCC4)cc2CCF)CCN1CC(=O)Nc1cc(Cl)cc(NC2CCC(=O)NC2=O)c1 (stereo partly drawn) [Example 142, N-(3-chloro-5-(2,6-dioxopiperidin-3-ylamino)phenyl)-2-((R)-4-(2-(4-(7-(6-cyano-5-(trifluoromethyl)pyridin-3-yl)-8-oxo-6-thioxo-5,7-diazaspiro[3.4]octan-5-yl)-2-(2-fluoroethyl)phenoxy)ethyl)-2-methylpiperazin-1-yl)acetamide]	* (0<Y<=25%)	< 100
CC(C)c1cc(N2C(=S)N(c3ccc(C#N)c(Cl)c3)C(=O)C2(C)C)ccc1OCCN1C[C@@H](C)N(CC(=O)Nc2cccc(NC3CCC(=O)NC3=O)c2)[C@@H](C)C1 (stereo partly drawn) [Example 202, 2-((2S,6R)-4-(2-(4-(3-(3-chloro-4-cyanophenyl)-5,5-dimethyl-4-oxo-2-thioxoimidazolidin-1-yl)-2-isopropylphenoxy)ethyl)-2,6-dimethylpiperazin-1-yl)-N-(3-(2,6-dioxopiperidin-3-ylamino)phenyl)acetamide]	* (0<Y<=25%)	< 100
CCc1c(OCCN2C[C@@H](C)N(CC(=O)Nc3cccc(NC4CCC(=O)NC4=O)c3)[C@@H](C)C2)ccc(N2C(=S)N(c3ccc(C#N)c(C(F)(F)F)c3)C(=O)C2(C)C)c1F (stereo partly drawn) [Example 271, 2-((2S,6R)-4-(2-(4-(3-(4-cyano-3-(trifluoromethyl)phenyl)-5,5-dimethyl-4-oxo-2-thioxoimidazolidin-1-yl)-2-ethyl-3-fluorophenoxy)ethyl)-2,6-dimethylpiperazin-1-yl)-N-(3-(2,6-dioxopiperidin-3-ylamino)phenyl)acetamide]	* (0<Y<=25%)	< 100
